Test results published in US10508120B2, “TYK2 inhibitors and uses thereof” (Nimbus Lakshmi, Inc., priority 2017, dated 2019).

Assays:
[1] = target: Tyk2 kinase domain (DH1) (Homo sapiens (Human), UniProt P29597); assay: Tyk2 Radioactive Kinase Assay; type: biochemical; conditions: compound at 10 μM, ATP 10 μM; for inhibition at 10 µM: read-out: Tyk2 JH1% Inhibition @ 10 μM
Procedure, shortened: (§1)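 Single-point screen: 10 μM test compound, radioactive kinase read-out, percent inhibition reported for each kinase domain.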

[2] = target: JAK2 kinase domain (JH1) (Homo sapiens (Human), UniProt O60674); assay: JAK2 Radioactive Kinase Assay; type: biochemical; conditions: compound at 10 μM, ATP 10 μM; for inhibition at 10 µM: read-out: JAK2 JH1% Inhibition @ 10 μM
Procedure, shortened: as §1

[3] = target: human TYK2 (JH2domain-pseudokinase) (Homo sapiens (Human), UniProt P29597); assay: TYK2 JH2 Domain Binding Assay (KINOMEscan)
Procedure, shortened: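 Competition binding of a DNA-tagged fusion of human TYK2 JH2 pseudokinase (G556–D888) with NFkB DNA-binding domain, from HEK293 extracts (<0.1 nM final), against immobilised ligand beads; 1 h shaking at room temperature, 0.9% DMSO. Bound kinase quantified by qPCR.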

Sequence of JAK2 kinase domain (JH1) (O60674 849-1124): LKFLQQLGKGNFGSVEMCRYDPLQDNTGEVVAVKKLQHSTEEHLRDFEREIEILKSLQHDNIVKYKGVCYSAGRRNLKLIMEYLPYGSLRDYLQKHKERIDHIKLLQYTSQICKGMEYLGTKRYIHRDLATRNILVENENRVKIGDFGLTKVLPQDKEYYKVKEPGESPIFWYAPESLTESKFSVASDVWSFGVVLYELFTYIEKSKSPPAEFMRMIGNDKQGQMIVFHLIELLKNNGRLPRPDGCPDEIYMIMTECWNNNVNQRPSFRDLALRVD
Sequence of human TYK2 (JH2domain-pseudokinase) (P29597 556-888): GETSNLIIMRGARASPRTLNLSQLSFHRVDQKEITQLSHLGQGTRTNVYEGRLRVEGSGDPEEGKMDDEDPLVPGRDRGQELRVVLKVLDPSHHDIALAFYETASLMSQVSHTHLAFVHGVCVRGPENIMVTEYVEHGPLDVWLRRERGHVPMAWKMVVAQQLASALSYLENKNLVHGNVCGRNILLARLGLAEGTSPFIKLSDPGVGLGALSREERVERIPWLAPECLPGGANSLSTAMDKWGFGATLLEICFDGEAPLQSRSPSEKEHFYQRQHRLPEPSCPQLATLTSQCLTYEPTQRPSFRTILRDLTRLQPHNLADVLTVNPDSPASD
Sequence of Tyk2 kinase domain (DH1) (P29597 897-1176): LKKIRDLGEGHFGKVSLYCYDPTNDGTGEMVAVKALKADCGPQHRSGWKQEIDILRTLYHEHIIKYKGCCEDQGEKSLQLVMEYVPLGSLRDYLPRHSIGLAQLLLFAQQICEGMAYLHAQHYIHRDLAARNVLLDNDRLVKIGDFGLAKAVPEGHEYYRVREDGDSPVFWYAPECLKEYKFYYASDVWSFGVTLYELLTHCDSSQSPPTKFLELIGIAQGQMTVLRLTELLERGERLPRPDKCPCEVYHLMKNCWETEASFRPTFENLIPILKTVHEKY

SMILES | inhibition at 10 µM [1] [%] | inhibition at 10 µM [2] [%] | Kd [3] [nM] | Tyk2 JH1% Inhibition @ 10 μM [1] | JAK2 JH1% Inhibition @ 10 μM [2]
CNc1cc(Nc2cccnc2OC)nc2c(C(=O)N[C@H]3CCC[C@@H]3O)cnn12 [I-449, (S)—N-((1S,2S)-2-hydroxycyclopentyl)-5-((2-methoxypyridin-3-yl)amino)-7-(methylamino) pyrazolo[1,5-a]pyrimidine-3-carboxamide] | < 50 | < 50 | 0.2 to 1 | – | –
CNc1cc(Nc2cccn(CCOC3CC3)c2=O)nc2c(C(=O)NC3CC3)cnn12 [I-453] | < 50 | < 50 | 0.2 to 1 | – | –
CNc1cc(-c2nn(CCN3CCOCC3)c3ncccc23)nc2c(C(=O)NC3CC3)cnn12 [I-455] | < 50 | < 50 | 1 to 10 | – | –
CNc1cc(-c2nn(CCN3CCOCC3)c3ncccc23)nc2c(C(=O)N[C@H]3C[C@H]3F)cnn12 [I-456] | < 50 | < 50 | 1 to 10 | – | –
CNc1cc(-c2nn(CCN3CCCCC3)c3ncccc23)nc2c(C(=O)NC3CC3)cnn12 [I-457] | < 50 | < 50 | 1 to 10 | – | –
CNc1cc(-c2nn(CCN3CCCCC3)c3ncccc23)nc2c(C(=O)N[C@H]3C[C@H]3F)cnn12 [I-458] | < 50 | < 50 | 0.2 to 1 | – | –
CNc1cc(Nc2cccnc2OC2CC2)nc2c(C(=O)N[C@@H]3CCC[C@H]3O)cnn12 [I-465, 5-((2-cyclopropoxypyridin-3-yl)amino)-N-((1R,2R)-2-hydroxycyclopentyl)-7-(methylamino)pyrazolo[1,5-a]pyrimidine-3-carboxamide] | – | – | 0.2 to 1 | A (percent inhibition at 10 μM lower than 50) | A (percent inhibition at 10 μM lower than 50)
CNc1cc(Nc2cccnc2OC2CC2)nc2c(C(=O)N[C@H]3CCC[C@@H]3O)cnn12 [I-466, 5-((2-cyclopropoxypyridin-3-yl)amino)-N-((1S,2S)-2-hydroxycyclopentyl)-7-(methylamino)pyrazolo[1,5-a]pyrimidine-3-carboxamide] | < 50 | < 50 | 0.2 to 1 | – | –
CNc1cc(Nc2cccnc2OC2CC2)nc2c(C(=O)NCCC3(O)CC3)cnn12 [I-469, 5-((2-cyclopropoxypyridin-3-yl)amino)-N-(2-(1-hydroxycyclopropyl)ethyl)-7-(methylamino)pyrazolo[1,5-a]pyrimidine-3-carboxamide] | < 50 | < 50 | 1 to 10 | – | –
CNc1cc(Nc2cccn(C3CCCN(C)C3)c2=O)nc2c(C(=O)NC3CC3)cnn12 (stereo not drawn) [I-471] | < 50 | < 50 | 0.2 to 1 | – | –
CNc1cc(Nc2cccn(CCOC3CC3)c2=O)nc2c(C(=O)N[C@@H]3CC[C@H]3O)cnn12 [I-472, 5-((1-(2-cyclopropoyethyl)-2-oxo-1,2-dihydropyridin-3-yl)amino)-N-(2-hydroxycyclobutyl)-7-(methylamino)pyrazolo[1,5-a]pyrimidine-3-carboxamide] | < 50 | < 50 | 0.2 to 1 | – | –
CNc1cc(Nc2cccn(CCOC3CC3)c2=O)nc2c(C(=O)N[C@@H]3CC[C@@H]3O)cnn12 [I-473] | < 50 | < 50 | 0.2 to 1 | – | –
CCCCn1cc(-c2cc(NC)n3ncc(C(=O)NC4CC4)c3n2)c2cccnc21 [I-477] | < 50 | < 50 | 0.2 to 1 | – | –
CCCCn1cc(-c2cc(NC)n3ncc(C(=O)N[C@@H]4C[C@@H]4F)c3n2)c2cccnc21 [I-478, 5-(1-butyl-1H-pyrrolo[2,3-b]pyridine-3-yl)-N-((1R,2S)-2-fluorocyclopropyl)-7-(methylamino)pyrazolo[1,5-a]pyrimidine-3-carboxamide] | < 50 | < 50 | 0.2 to 1 | – | –
CNc1cc(-c2nn(CCN3CCN(C)CC3)c3ncccc23)nc2c(C(=O)NC3CC3)cnn12 [I-479] | < 50 | < 50 | 1 to 10 | – | –
CNc1cc(-c2nn(CCN3CCN(C)CC3)c3ncccc23)nc2c(C(=O)N[C@H]3C[C@H]3F)cnn12 [I-480] | < 50 | < 50 | 0.2 to 1 | – | –
CNc1cc(Nc2cccc(N3CC[C@@H](OC)C3)n2)nc2c(C(=O)NC3CC3)cnn12 [I-481] | < 50 | < 50 | 0.2 to 1 | – | –
CNc1cc(Nc2cccc(N3CC[C@@H](OC)C3)n2)nc2c(C(=O)NC3CC3)cnn12 [I-482] | – | – | 0.2 to 1 | A (percent inhibition at 10 μM lower than 50) | A (percent inhibition at 10 μM lower than 50)
CNc1cc(Nc2cccn([C@H]3CCC[C@@H]3OC)c2=O)nc2c(C(=O)N[C@@H]3C[C@@H]3F)cnn12 [I-485] | – | – | 0.2 to 1 | A (percent inhibition at 10 μM lower than 50) | A (percent inhibition at 10 μM lower than 50)
CNc1cc(Nc2cccn([C@@H]3CCC[C@H]3OC)c2=O)nc2c(C(=O)N[C@@H]3C[C@@H]3F)cnn12 [I-486] | < 50 | < 50 | 0.2 to 1 | – | –
CNc1cc(Nc2cccn([C@H]3CCC[C@H]3OC)c2=O)nc2c(C(=O)NC3CC3)cnn12 [I-491] | < 50 | < 50 | 1 to 10 | – | –

Further lines, with some results ahead:

inhibition at 10 µM [1] [%] | inhibition at 10 µM [2] [%] | Kd [3] [nM] | SMILES | Tyk2 JH1% Inhibition @ 10 μM [1] | JAK2 JH1% Inhibition @ 10 μM [2]
< 50 | < 50 | < 0.2 | [2H]C([2H])([2H])Oc1ncccc1Nc1cc(NC)n2ncc(C(=O)NC3[C@H]4COC[C@@H]34)c2n1 (stereo partly drawn) [I-447] | – | –
< 50 | < 50 | < 0.2 | CNc1cc(-c2nn(C(C)C)c3ncccc23)nc2c(C(=O)N[C@H]3C[C@H]3F)cnn12 [I-451] | – | –
< 50 | < 50 | < 0.2 | CNc1cc(-c2nn(C3CCOC3)c3ncccc23)nc2c(C(=O)N[C@H]3C[C@H]3F)cnn12 (stereo partly drawn) [I-452] | – | –
< 50 | < 50 | < 0.2 | CNc1cc(Nc2cccn(CCOC3CC3)c2=O)nc2c(C(=O)N[C@@H]3C[C@@H]3F)cnn12 [I-454] | – | –
< 50 | < 50 | < 0.2 | [2H]C([2H])([2H])Oc1ncccc1Nc1cc(NC)n2ncc(C(=O)N[C@H]3CCC[C@H](O)C3)c2n1 [I-460] | – | –
< 50 | < 50 | < 0.2 | [2H]C([2H])([2H])Oc1ncccc1Nc1cc(NC)n2ncc(C(=O)N[C@H]3CC[C@H](O)C3)c2n1 [I-462] | – | –
< 50 | < 50 | 0.2 to 1 | CNc1cc(Nc2cccnc2OC)nc2c(C(=O)N[C@H]3CC[C@H](O)C3)cnn12 [I-467] | – | –
< 50 | < 50 | 0.2 to 1 | CNc1cc(Nc2cccnc2OC)nc2c(C(=O)NCCC3(O)CC3)cnn12 [I-468, N-(2-(1-hydroxycyclopropyl)ethyl)-5-((2-methoxypyridin-3-yl)amino)-7-(methylamino)pyrazolo[1,5-a]pyrimidine-3-carboxamide] | – | –
< 50 | < 50 | < 0.2 | [2H]C([2H])([2H])Oc1ncccc1Nc1cc(NC)n2ncc(C(=O)NCCC3(O)CC3)c2n1 [I-470, N-(2-(1-hydroxycyclopropyl)ethyl)-5-((2-(methoxy-d3)pyridin-3-yl)amino)-7-(methylamino)pyrazolo[1,5-a]pyrimidine-3-carboxamide] | – | –
< 50 | < 50 | < 0.2 | CNc1cc(Nc2cccn([C@H]3CCCOC3)c2=O)nc2c(C(=O)N[C@@H]3C[C@@H]3F)cnn12 [I-475] | – | –
< 50 | < 50 | < 0.2 | CNc1cc(Nc2cccnc2OC)nc2c(C(=O)NC(C)(C)C#N)cnn12 [I-476, N-(2-cyanopropan-2-yl)-5-((2-methoxypyridin-3-yl)amino)-7-(methylamino)-pyrazolo[1,5-a]pyrimidine-3-carboxamide] | – | –
< 50 | < 50 | < 0.2 | CNc1cc(Nc2cccnc2OC)nc2c(C(=O)NC[C@@H](C)CO)cnn12 [I-484] | – | –
– | – | < 0.2 | CNc1cc(Nc2cccnc2OC)nc2c(C(=O)N[C@H]3CC[C@H](O)C3)cnn12 [I-487] | A (percent inhibition at 10 μM lower than 50) | A (percent inhibition at 10 μM lower than 50)
< 50 | < 50 | < 0.2 | CNc1cc(Nc2cccnc2OC)nc2c(C(=O)N[C@@H]3CC[C@@H](O)C3)cnn12 [I-488] | – | –
< 50 | < 50 | < 0.2 | CNc1cc(Nc2cccnc2OC2CC2)nc2c(C(=O)N[C@@H]3CC[C@@H](O)C3)cnn12 [I-490, 5-((2-cyclopropoxypyridin-3-yl)amino)-N-((1R,3R)-3-hydroxycyclopentyl)-7-(methylamino)pyrazolo[1,5-a]pyrimidine-3-carboxamide] | – | –
< 50 | < 50 | < 0.2 | CNc1cc(Nc2cccnc2OC2CC2)nc2c(C(=O)NC(C)(C)C#N)cnn12 [I-492, N-(2-cyanopropan-2-yl)-5-((2-cyclopropoxypyridin-3-yl)amino)-7-(methylamino)pyrazolo[1,5-a]pyrimidine-3-carboxamide] | – | –
